Experimental data as given in patent publication US20260183274A1, “PDK1 REGULATORY COMPOUND AND COMPOSITION CONTAINING THE SAME” (PROVIBIO CO., LTD., priority 2024, published 2026).

What was measured:
[1] = test system: T cells isolated from mouse spleens; experiment: T cell proliferation inhibition (CFSE flow cytometry, anti-CD3/anti-CD28 stimulation); type: cell-based; details: Mus musculus, T-cell, 72 h, mouse spleen T cells, 3 days, read-out: Proliferation inhibition rate (%); for inhibition at 0.01 µM: compound 10 nM; for inhibition at 0.1 µM: compound 100 nM; for inhibition at 1 µM: compound 1 μM; for inhibition at 10 µM: compound 10 μM; for inhibition at 30 µM: compound 30 μM; for inhibition at 50 µM: compound 50 μM
Procedure, shortened: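 Proliferation inhibition (%) came from flow cytometry of CFSE dilution after 3 days' culture at 37 °C with compound (10 nM, 100 nM, 1, 10, 30, 50 μM; triplicate wells). Cells were magnetically purified T cells from C57BL/6 mouse spleens, 2×10^5 per well, stimulated with 0.5 μg/mL each anti-CD3 and anti-CD28.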

[2] = test system: Human B Lymphocyte cell line, SU-DHL-8; experiment: Relative cell viability CCK-8, SU-DHL-8; type: cell-based; details: Homo sapiens, SU-DHL-8, 48 h, 48 hours, untreated (DMSO) = 100%; for viability at 1 µM: read-out: Relative cell viability (%), SU-DHL-8, 1 μM; for viability at 10 µM: read-out: Relative cell viability (%), SU-DHL-8, 10 μM; for viability at 30 µM: read-out: Relative cell viability (%), SU-DHL-8, 30 μM; for viability at 50 µM: read-out: Relative cell viability (%), SU-DHL-8, 50 μM
Procedure, shortened: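 Cells grown in RPMI-1640 with 10% FBS, treated with compound at several concentrations, then given CCK-8 for 4 h at 37° C. Viability expressed as percent of DMSO-treated cells.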

[3] = test system: Human Cervical Carcinoma cell line, HeLa; experiment: Relative cell viability CCK-8, HeLa; type: cell-based; details: 48 hours
Method: Similarly, human-derived cervical cancer cell line HeLa and renal cancer cell line ACHN, obtained from the Korean Cell Bank, were cultured in DMEM medium containing 10% FBS, 100 U/mL penicillin, and 100 μg/mL streptomycin.
(§1) Following stabilization, the cells were harvested using Trypsin-EDTA treatment, centrifuged at 1,200 rpm for 3 minutes, the supernatant was removed, and the cells were resuspended in the same medium. They were then seeded into a 96-well plate (Costar 96-well cell culture plate, Corning) at 100 μL per well, and the conditions were adjusted as indicated in Table 5.
(§2) The cells were cultured in a 5% CO2 incubator at 37° C. for 24 hours, and after stabilization of the cells, each plate was washed with 200 μL of PBS per well and treated with 50 μL of culture medium per well.
(§3) The compounds according to the present invention or the control group (DMSO) were added at concentrations of 0, 10, 30, and 50 μM in 50 μL aliquots to the plates, and the plates were cultured at 37° C. in a 5% CO2 incubator for 48 hours.
(§4) After that, 10 μL of CCK-8 was added to each well, and the plate was incubated again at 37° C. in a 5% CO2 incubator for 2 hours.
(§5) In other words, when the survival rate of untreated cells (DMSO) is set at 100%, the relative cell survival rate in each group treated with the drug at different concentrations is indicated.

[4] = test system: Human Breast Cancer cell line, MCF-7; experiment: Relative cell viability CCK-8, MCF-7; type: cell-based; details: 48 hours
Method: (§6) Human-derived breast cancer cell line MCF-7, human-derived lung cancer cell line A549, human-derived colorectal cancer cell line HCT-116, human pancreatic cancer cell line AsPC-1, glioblastoma cell line A172, and melanoma cell line Malme-3M were obtained from the Korean Cell Bank. gastric cancer cell line SNU-719, and bladder cancer cell line T24 were cultured in RPMI-1640 medium containing 10% FBS.
as §1, §2, §3, §4, §5

[5] = test system: Human Colorectal Carcinoma cell line, HCT-116; experiment: Relative cell viability CCK-8, HCT-116; type: cell-based; details: Homo sapiens, HCT-116, 48 hours
Method: as §6, §1, §2, §4, §5

[6] = test system: Human Pancreas Adenocarcinoma cell line, AsPC-1; experiment: Relative cell viability CCK-8, AsPC-1; type: cell-based; details: 48 hours
Method: as §6, §1, §2, §4, §5

[7] = test system: Human Gastric cancer cell, SNU-719; experiment: Relative cell viability CCK-8, SNU-719; type: cell-based; details: 48 hours
Method: as §6, §1, §2, §4, §5

[8] = test system: Human Bladder cancer cell, T24; experiment: Relative cell viability CCK-8, T24; type: cell-based; details: Homo sapiens, 48 h
Method: as §6, §1, §2, §4, §5

[9] = test system: HCT-116 colon cancer cell lines; experiment: Matrigel Invasion Assay, HCT-116; type: cell-based, human; details: 24 hours treatment, FIG. 30
Method: To evaluate the metastasis inhibitory efficacy of the compounds of the present invention on HCT-116 colon cancer cell lines, an Invasion Assay using Matrigel was performed to assess the cells' invasion ability.
First, Matrigel was thawed on ice in RPMI-1640 medium without FBS, then diluted with DMEM at a ratio of 1:20.
The diluted Matrigel mixture was applied to the upper chamber at 100 μl per well, and 750 μl of RPMI-1640 without FBS was added to the lower chamber.
The plates were then incubated at 37° C. for 1 hour to allow the Matrigel to solidify.
After coating, the Matrigel mixture in the upper chamber was removed using a pipette, and the chamber was washed with RPMI without FBS.
Human-derived colorectal cancer cell line HCT-116, obtained from the Korean Cell Bank, was cultured in RPMI-1640 medium containing 10% FBS.
Following stabilization, the cells were harvested using Trypsin-EDTA treatment, centrifuged at 1,200 rpm for 3 minutes, the supernatant was removed, and the cells were resuspended in the same medium, the medium in the lower chamber was replaced with 750 μl of RPMI-1640 supplemented with 10% FBS, and the cells were seeded into the upper chamber at a density of 5×10^4 cells/well.
The cells were cultured for 24 hours after attachment, and then the compounds according to the present invention (G078, G085, G086, G088, G089, PBK-2024-010, PBK-2025-010, PBK-2025-013, PBK-2025-016) and the control substance DMSO were diluted and added to the upper chamber after removing the medium.
Additionally, the medium in the lower chamber was replaced with fresh RPMI-1640 containing FBS, and the culture was continued.
After an additional 24 hours, the medium was removed, and 1 ml of methanol was added for 10 minutes to fix the cells.
Subsequently, 1 ml of Hematoxylin was added and reacted for 5 minutes, followed by 1 ml of Eosin, which was reacted for 30 seconds. The sample was then washed with distilled water (DW).
After staining was complete, any remaining cells in the upper chamber were removed. Finally, the infiltrated cells were observed under a microscope, photographed, and the degree of infiltration was analyzed.

## Nc1ncccc1C(=O)NCCCCCCCCCCCCN1CCc2ccccc2C1 [Compound 3, 2-Amino-N-[12-(3,4-dihydro-1H-isoquinolin-2-yl)-dodecyl]-nicotinamide]
[1]
  inhibition at 0.01 µM: 4.99%
  inhibition at 0.1 µM: 0%
  inhibition at 1 µM: 0%
  inhibition at 10 µM: 88.3%
  inhibition at 30 µM: 100%
  inhibition at 50 µM: 100%
[2]
  viability at 1 µM: 29.1%
  viability at 10 µM: 25.7%
  viability at 30 µM: 24.7%
  viability at 50 µM: 23.5%
[3]; 1 μM
  viability at 1 µM: 16.4%
[3]; 10 μM
  viability at 10 µM: 3.26%
[3]; 30 μM
  viability at 30 µM: 1.07%
[3]; 50 μM
  viability at 50 µM: 0.73%
[4]; MCF7, 1 μM
  viability at 1 µM: 35.4%
[4]; MCF7, 10 μM
  viability at 10 µM: 9.1%
[4]; MCF7, 30 μM
  viability at 30 µM: 4.02%
[4]; MCF7, 50 μM
  viability at 50 µM: 1.95%

## O=C(NCCCCCCCCCCCCN1CCN2CCCC2C1)c1cccnc1 (stereo not drawn) [Compound 23, N-(12-(hexahydropyrrolo[1,2-a]pyrazin-2 (1H)-yl)dodecyl) nicotinamide]
[1]
  inhibition at 0.01 µM: -12.8%
  inhibition at 0.1 µM: 100%
  inhibition at 1 µM: 100%
  inhibition at 10 µM: 100%
  inhibition at 30 µM: 100%
  inhibition at 50 µM: 100%
[2]
  viability at 1 µM: 16.1%
  viability at 10 µM: 15.7%
  viability at 30 µM: 9.17%
  viability at 50 µM: 1.97%
[5]; 1 μM
  viability at 1 µM: 13.1%
[5]; 10 μM
  viability at 10 µM: 14.6%
[5]; 30 μM
  viability at 30 µM: 14%
[5]; 50 μM
  viability at 50 µM: 13%
[6]; ASPC1, 1 μM
  viability at 1 µM: 42.4%
[6]; ASPC1, 10 μM
  viability at 10 µM: 44.5%
[6]; ASPC1, 30 μM
  viability at 30 µM: 42.7%
[6]; ASPC1, 50 μM
  viability at 50 µM: 42%
[7]; 1 μM
  viability at 1 µM: 36.1%
[7]; 10 μM
  viability at 10 µM: 35.9%
[7]; 30 μM
  viability at 30 µM: 40.4%
[7]; 50 μM
  viability at 50 µM: 35.6%
[8]; 1 μM
  viability at 1 µM: 10%
[8]; 10 μM
  viability at 10 µM: 10.1%
[8]; 30 μM
  viability at 30 µM: 9.53%
[8]; 50 μM
  viability at 50 µM: 9.46%
[9]
  Number of infiltrated cells (invasion): reduction in the number of infiltrated cells
